Common to all, as to format: cell-based
The test system of experiment [1] is a variety of tumor cell types. In words: In vitro antiproliferation assays against a variety of tumor cell types (stereoisomer comparison). As to conditions: for Inhibition of proliferation of a variety of tumor cell lines: in words. Here is the method: Moreover, it has been discovered that the enantiomer corresponding to the (1R,2R,3S,4S) diastereomer of structural formula (IVa) is largely responsible for the potency of the exo-exo cis racemate.
(§1) Certain compounds were tested against other cell types for their ability to inhibit proliferation in standard antiproliferation assays.

For the next experiment, the system named is A549 (lung carcinoma). In words: In vitro antiproliferation assay, A549 cells (TABLE 1 6 point assay; TABLE 2). Here is the method:
as §1

Another experiment has as its system H7299. In words: In vitro antiproliferation assay, H7299 cells. Here is the method: as §1
Experiment [2] has as its system H1299 (non-small cell lung carcinoma). In words: In vitro antiproliferation assay, H1299 cells (TABLE 1 6 point assay; TABLE 2). Here is the method: as §1
In experiment [3] the test system is MOLT3 (T lymphoblast acute lymphoblastic leukemia). Nature of the experiment: In vitro antiproliferation assay, MOLT3 cells. As to conditions: Homo sapiens, MOLT-3. On the procedure: as §1
Experiment [4] has as its system SW620 (colorectal adenocarcinoma). Nature of the experiment: In vitro antiproliferation assay, SW620 cells. Conditions: Homo sapiens, SW-620. Here is the method: as §1
The test system of experiment [5] is COLO 205 (colorectal adenocarcinoma). Nature of the experiment: In vitro antiproliferation assay, COLO 205 cells. Conditions: Homo sapiens, COLO 205; Colo205. Here is the method:
as §1

The subject of experiment [6] is MOLT4 (T lymphoblast acute lymphoblastic leukemia). In words: In vitro antiproliferation assay, MOLT4 cells. Conditions: Homo sapiens, MOLT-4. On the procedure:
as §1

In experiment [7] the test system is MiaPaCa-2 (pancreatic carcinoma). In words: In vitro antiproliferation assay, MiaPaCa-2 cells. As to conditions: Homo sapiens, MIA PaCa-2; Miapaca2; read-out: In Vitro IC50. On the procedure: Cis racemic Compound 15, (1S,2R) enantiomeric Compound 15a and […] enantiomeric Compound 15b were also tested against DU145 (prostate carcinoma), HCT116 (colorectal carcinoma) and MiaPaCa-2 (pancreatic carcinoma) cell lines.
as §1

The subject of experiment [8] is L1210 (mouse lymphocytic leukemia). In words: In vitro antiproliferation assay, L1210 cells. Conditions: Mus musculus. On the procedure: as §1
Experiment [9] relates to THP-1 (monocyte acute monocytic leukemia). In words: In vitro antiproliferation assay, THP-1 cells. Conditions: Homo sapiens. Here is the method: as §1
Experiment [10] deals with HL160 (promyeloblast promyelocytic leukemia). Nature of the experiment: In vitro antiproliferation assay, HL160 cells. Here is the method:
as §1

Experiment [11] deals with U937 (histiocytic lymphoma). In words: In vitro antiproliferation assay, U937 cells. As to conditions: Homo sapiens, U-937. On the procedure: as §1
Experiment [12] has as its system K562 (bone marrow chronic myelogenous leukemia). Nature of the experiment: In vitro antiproliferation assay, K562 cells. Conditions: Homo sapiens. Here is the method:
as §1

The mark [13] stands for this setting: 6 point assay, A549 cells, read-out: IC50, A549 cells.
[14] abbreviates: 6 point assay, H1299 cells, read-out: IC50, H1299 cells.
Where [15] appears, read: Homo sapiens, A549, 6 point assay, A549 cells, read-out: IC50, A549 cells.
Setting [16] is: Homo sapiens, NCI-H1299, 6 point assay, H1299 cells, read-out: IC50, H1299 cells.
Where [17] appears, read: Homo sapiens, A549, A549 cells, 6 point assay, read-out: A549, 6pt (IC50, inhibition of proliferation).
[18] abbreviates: Homo sapiens, NCI-H1299, H1299 cells, 6 point assay, read-out: H1299, 6pt (IC50, inhibition of proliferation).

The values below come from US7868013B2, “Cycloalkyl substituted pyrimidinediamine compounds and their uses” (Rigel Pharmaceuticals, Inc., priority 2004, dated 2011).

Each structure is given as a SMILES string. Counter-ions that a name gives are not always drawn. Like-named read-outs stand apart in the source and are kept apart here. Some results are limits rather than exact numbers.

Take `Cc1cc(Nc2ncc(F)c(NC3C4C=CC(C4)C3C(N)=O)n2)ccc1N1CCN(C)CC1` (racemic) [cis exo-exo racemate, N4-(3-aminocarbonylbicyclo[2.2.1]hept-5-en-2-yl)-5-fluoro-N2-[3-methyl-4-(4-methylpiperazin-1-yl)phenyl]-2,4-pyrimidinediamine]: the “Potency relative to the cis endo-endo racemate” value in experiment [1] (cis exo-exo racemate, all cell lines tested) was “approximately twenty-fold more potent”.

With `Cc1cc(Nc2ncc(F)c(NC3C4C=CC(C4)C3C(N)=O)n2)ccc1N1CCN(C)CC1` (racemic) [Compound 60r2, Racemic-(2-endo,3-endo)-N4-(3-aminocarbonylbicyclo[2.2.1]hept-5-en-2-yl)-5-fluoro-N2-[3-methyl-4-(4-methylpiperazin-1-yl)phenyl]-2,4-pyrimidinediamine], the IC50 in the experiment with A549 (lung carcinoma) (setting [13]) was 100 to 1000 nM; in the experiment with A549 (lung carcinoma) (A549, read-out: In Vitro IC50), not above 1000 nM; in the experiment on H7299 it was not above 1000 nM; in experiment [2] (setting [14]) it was 100 to 1000 nM.

Consider `Cc1cc(Nc2ncc(F)c(NC3CCCC3C(N)=O)n2)ccc1N1CCN(C)CC1` [cis (1S,2R), N4-(2-aminocarbonylcyclopent-1-yl)-5-fluoro-N2-[4-(4-methylpiperazin-1-yl)-3-methylphenyl]-2,4-pyrimidinediamine], for which, in [1], the “Inhibition of proliferation of a variety of tumor cell lines” value (“Inhibition” for short) was “inhibit the proliferation”.

Regarding `Cc1cc(Nc2ncc(F)c(NC3C4C=CC(C4)C3C(N)=O)n2)ccc1N1CCN(C)CC1` (racemic) [Compound 228, Racemic N4-(3-Aminocarbonylbicyclo[2.2.1]hept-5-en-2-yl)-5-fluoro-N2-[3-methyl-4-(4-methylpiperazin-1-yl)phenyl]-2,4-pyrimidinediamine Hydrogen Chloride Salt], the IC50 in the experiment with A549 (lung carcinoma) (setting [13]) was not above 100 nM; in the experiment with A549 (lung carcinoma) (A549, read-out: In Vitro IC50) it was not above 1000 nM; with H7299, not above 1000 nM; in experiment [2] (setting [14]), not above 100 nM; in experiment [2] (H1299, read-out: In Vitro IC50), not above 1000 nM.

Turning to `Cc1cc(Nc2ncc(F)c(NC3C4C=CC(C4)C3C(N)=O)n2)ccc1N1CCN(C)CC1` [(1S,2S,3R,4R) diastereomer, N4-(3-aminocarbonylbicyclo[2.2.1]hept-5-en-2-yl)-5-fluoro-N2-[3-methyl-4-(4-methylpiperazin-1-yl)phenyl]-2,4-pyrimidinediamine], the “IC50s when tested as isolated stereoisomers” value in [1] (range in words, same cell lines) was “micromolar range”.

Regarding `Cc1cc(Nc2ncc(F)c(NC3CCCC3C(N)=O)n2)ccc1N1CCN(C)CC1` [trans (1S,2S) diastereomer, N4-(2-aminocarbonylcyclopent-1-yl)-5-fluoro-N2-[4-(4-methylpiperazin-1-yl)-3-methylphenyl]-2,4-pyrimidinediamine], the “Inhibition” value in experiment [1] is “relatively inactive”.

As to `Cc1cc(Nc2ncc(F)c(NC3CCCC3C(N)=O)n2)ccc1N1CCN(C)CC1` [trans (1R,2R) diastereomer, N4-(2-aminocarbonylcyclopent-1-yl)-5-fluoro-N2-[4-(4-methylpiperazin-1-yl)-3-methylphenyl]-2,4-pyrimidinediamine], in [1], the “Inhibition” value is on record as “inhibit the proliferation”.

On to `Cc1cc(Nc2ncc(F)c(NC3CCCC3C(N)=O)n2)ccc1N1CCN(C)CC1` [cis (1R,2S), N4-(2-aminocarbonylcyclopent-1-yl)-5-fluoro-N2-[4-(4-methylpiperazin-1-yl)-3-methylphenyl]-2,4-pyrimidinediamine], for which the “Inhibition” value in experiment [1] is recorded as “inhibit the proliferation”.

On to `Cc1ccc(Nc2ncc(F)c(NC3CCCC3C(N)=O)n2)cc1` (stereo not drawn) [compound 212, (cis)-N4-(2-Carboxamidocyclopent-1-yl)-5-fluoro-N2-(4-methylphenyl)-2,4-pyrimidinediamine], for which the IC50 (with A549 (lung carcinoma) (setting [15]); in experiment [2] (setting [16])) was 1000 to 10000 nM in each case.

Take `CN1CCN(c2ccc(Nc3ncc(F)c(NC4CCCC4C(N)=O)n3)cc2)CC1` (stereo not drawn) [compound 203, N4-(2-Carboxamidocyclopentyl)-5-fluoro-N2-[4-(4-methylpiperazino)phenyl]-2,4-pyrimidinediamine Monohydrochloride Salt]: the IC50 (with A549 (lung carcinoma) (setting [13]); in [2] (setting [14])) was 100 to 1000 nM each time.

As to `Cc1cc(Nc2ncc(F)c(N[C@@H]3[C@H](C(N)=O)[C@@H]4C=C[C@H]3C4)n2)ccc1N1CCN(C)CC1` [compound 154], the IC50 (with A549 (lung carcinoma) (setting [17]); in [2] (setting [18])) was 100 to 1000 nM throughout.

With `Cc1cc(Nc2ncc(F)c(N[C@@H]3CCC[C@@H]3C(N)=O)n2)ccc1N1CCN(C)CC1` [compound 222, (1R,2S)-N4-(2-Aminocarbonylcyclopent-1-yl)-5-fluoro-N2-[3-methyl-4-(4-methylpiperazin-1-yl)phenyl]-2,4-pyrimidinediamine Bis Hydrogen Chloride Salt], the IC50 in experiment [3] is not above 1000 nM; in experiment [4], not above 1000 nM; in [5], not above 1000 nM; in experiment [6], not above 1000 nM; in the experiment on A549 (lung carcinoma) (setting [13]), 100 to 1000 nM; in the experiment on A549 (lung carcinoma) (Homo sapiens, A549, A549, read-out: In Vitro IC50) it was not above 1000 nM. For the same compound, the IC50 is not above 1000 nM in experiment [7]; not above 1000 nM in experiment [8]; 100 to 1000 nM in experiment [2] (setting [14]); not above 1000 nM in experiment [2] (Homo sapiens, NCI-H1299, H1299, read-out: In Vitro IC50); not above 1000 nM in experiment [9]; not above 1000 nM in [10]. For the same compound, the IC50 in [11] was not above 1000 nM; in experiment [12] it was more than 1000 nM.

In the case of `CN1CCN(Cc2cc3cc(Nc4ncc(F)c(N[C@H]5CCC[C@H]5C(N)=O)n4)ccc3o2)CC1` (racemic) [compound 131, Racemic-cis-N4-(2-aminocarbonylcyclopent-1-yl)-5-fluoro-N2-[2-(4-methylpiperazin-1-ylmethylene)benzofuran-5-yl]-2,4-pyrimidinediamine], the IC50 (in the experiment with A549 (lung carcinoma) (setting [17]); in experiment [2] (setting [18])) was 1000 to 10000 nM throughout.

As for `CCOC(=O)N1CCN(c2cccc(Nc3ncc(F)c(NC4CCCC4C(N)=O)n3)c2)CC1` (stereo not drawn) [compound 201, N4-(2-Carboxamidocyclopentyl)-N2-[3-(4-ethoxycarbonylpiperazino)phenyl]-5-fluoro-2,4-pyrimidinediamine], the IC50 in the experiment on A549 (lung carcinoma) (setting [15]) is 100 to 1000 nM; in experiment [2] (setting [16]) it was 1000 to 10000 nM.

As to `Cc1cc(Nc2ncc(F)c(N[C@H]3[C@@H](C(N)=O)[C@@H]4C=C[C@H]3C4)n2)ccc1N(C1CC1)C1CCN(C)CC1` [compound 123, (1R,2R,3S,4S)-N4-(3-Aminocarbonylbicyclo[2.2.1]hept-5-en-2-yl)-5-fluoro-N2-{4-[N-cyclopropyl-(1-methylpiperidin-4-yl)]-3-methylphenyl}-2,4-pyrimidinediamine], the IC50 (in the experiment on A549 (lung carcinoma) (setting [17]); in [2] (setting [18])) was not above 100 nM each time.

For `Cc1cc(Nc2ncc(F)c(NC3C4C=CC(C4)C3C(N)=O)n2)ccc1N1CCN(CCO)CC1` (racemic) [compound 111], the IC50 (with A549 (lung carcinoma) (setting [17]); in experiment [2] (setting [18])) was not above 100 nM in each case.

For `CN(C)CCn1ccc2ccc(Nc3ncc(F)c(NC4C5C=CC(C5)C4C(=O)NC4CC4)n3)cc21` (racemic) [compound 169, Racemic-(2-exo,3-exo)-N4-[3-cyclopropylaminocarbonylbicyclo[2.2.1]hept-5-en-2-yl)-N2-[1-(2-dimethylaminoethyl)indol-6-yl]-5-fluoro-2,4-pyrimidinediamine], the IC50 was not above 100 nM in the experiment with A549 (lung carcinoma) (setting [17]) and 100 to 1000 nM in experiment [2] (setting [18]).
